Like-named read-outs stand apart in the source and are kept apart here.

For one assay, the system named is MCF-7 (Breast). Nature of the assay: MTT cell proliferation assay, MCF-7. It is filed as cell-based, human. The settings on record: read-out: IC50 μM MCF-7 (Breast). As to the method:
(§1) Cell Culture: The human breast cancer epithelial cell lines MDA-MB-231 (HTB-26™), MCF-7 (HTB-22™), colon cancer cell lines HCT 116 (CCL-247™) and […] (CCL-244™) were obtained from American Type Culture Collection (ATCC). Additionally, KAIMRC1 cell line was isolated and developed at KAIMRC from a breast cancer patient. All the cells were grown in advanced DMEM containing 10% fetal bovine serum (FBS), 50 units/mL penicillin, 50 ug/mL streptomycin (GIBCO), and 2 mM glutamine (GIBCO). The cells were cultured at 37° C. in a humidified 5% CO2 atmosphere for 24 hours before experimental procedure.
(§2) Cell Proliferation Assay (MTT): Cells were plated on flat-bottom 96-well plates at a density of 5×10^3 cells/well in 100 μL growth medium. Serial dilutions of the compounds, ranging from 100 nM-100 μM were tested on the cells in triplicates. Additional rows with only the compounds and only cells were added in order to account for the compounds and cells effect. Cells were incubated with compounds for 48 h at 37° C. with 5% CO2.
(§3) After 48 h treatment, the cell viability was determined using the MTT viability assay. Briefly, 5 μL of MTT reagent (5 mg/mL stock) per 95 μl cell culture medium was added to each well and incubated for 3 h at 37° C. with 5% CO2. After 3 h the supernatant was removed, and the MTT formazan crystals were dissolved in dimethyl sulfoxide (DMSO) by shaking the plate for 30 mins at RT. The absorbance was measured on Molecular Devices microplate absorbance reader at 560 nm. The percentage of viable cells was calculated as the ratio of the absorbance of the treated group divided by the absorbance of the control group multiplied by 100. The absorbance from the untreated control cells was set as 100% viable. IC50 values were calculated from dose-response curves generated using a polynomial dose-response approximation using Prism 8 software. The IC50 values (µM) obtained for the compounds of present invention on MDA-MD 231 (breast), MCF-7 (breast), KAIMRC1 (breast), HCT116 (colon) and HCT8 (colon) are summarized in Table 5 and 6.

A further assay has as its system HCT116 (Colon). Put plainly: MTT cell proliferation assay, HCT116. It is filed as cell-based, human. The settings on record: read-out: IC50 μM HCT116 (Colon). As to the method: as §1, §2, §3
(Formazan colour is commonly taken as a measure of viable cells.)

Assay [1] relates to MDA MB-231 cell line (Breast). Put plainly: MTT cell proliferation assay, MDA MB-231. It is filed as cell-based, human. The settings on record: read-out: IC50 μM MDA MB-231 (Breast). Here is the method: as §1, §2, §3
Another assay concerns KAIMRC1 (Breast). Nature of the assay: MTT cell proliferation assay, KAIMRC1. It is filed as cell-based, human. The settings on record: read-out: IC50 μM KAIMRC1 (Breast).
Description: The immortalized cell lines included in the testing panel of this disclosure are MCF7 (a breast cancer cell line), MCF10 (immortalized human breast epithelial cells), MDA-MB231 (an epithelial, human breast cancer cell line that was established from a pleural effusion of a patient with a metastatic mammary adenocarcinoma), KAIMRC1 (a naturally immortalized human breast carcinoma cell line), KAIMRC2 (a naturally immortalized breast cancer cell line). The primary cells available for lead toxicity assays are, without limitation: hepatocytes (supplied by Xenotech, Bioscience Lonza, Accegen, Biocompare, Gibco, Zen-Bio, Takarabio, AxolBio, Creative Bioarray), cardiomyocytes (supplied by Cellartis, Axolbio, Cedarlanelabs, EMD Millipore, Takara Bio, Neuromics, AcceGene), primary neurons (AcceGen, Cellapplications, Neuromics, Biocompare, AxolBio, BrainXcell), endothelial lining (Thermofisher, Accegen, Biocompare, Promocell, ATCC). Multicellular 3D organoids raised by differentiating iPSC (induced pluripotent stem cells) are provided by Sigma Aldrich (the iPSC cell lines, organoids), Tocris Bioscience, Thermofisher, Stemcell Technologies, Takara Bio, Emulatebio (Human organ chips), Prodolabs.
as §1, §2, §3

For another assay, the system named is HL 60 (leukemia). Put plainly: Cell Titre Glo luminescent cell viability assay, HL 60. It is filed as cell-based. To be noted: Cell Titre Glo luminescence, normalized to DMSO controls.
Description: (§4) Another embodiment discloses Titer Glo Assay for the characterization of the synthesized compounds. The CellTiter-Glo® Luminescent Cell Viability Assay is a homogeneous method of determining the number of viable cells in culture based on quantitation of the ATP present, an indicator of metabolically active cells. The CellTiter-Glo® Assay is designed for use with multiwell formats, making it ideal for automated high-throughput screening (HTS), cell proliferation, and cytotoxicity assays. The homogeneous assay procedure involves adding the single reagent (CellTiter-Glo® Reagent) directly to cells cultured in serum-supplemented medium. Cell washing, removal of medium, and multiple pipetting steps are not required. The system detects as few as 15 cells/well in a 384-well format in 10 minutes after adding reagent and mixing.
as §1
(§5) Cell Titre Glo assay was performed on two Leukemia cell lines, HL 60 and ThP1 as per manufacturer's (Promega) recommendations. Briefly, plates were prepared as mentioned in cell culture section. 100 µL of Cell Titre Glo was added directly to the wells. After incubation for 30 minutes at room temperature, luminescence was measured using the Envision plate reader (Perkin Elmer). Luminescence readings were normalized to averaged DMSO controls and expressed as relative percentage. IC50 values were calculated from dose-response curves generated using a polynomial dose-response approximation using Prism 8 software.

The next assay deals with ThP1 (leukemia). Put plainly: Cell Titre Glo luminescent cell viability assay, ThP1. It is filed as cell-based. To be noted: Cell Titre Glo luminescence, normalized to DMSO controls.
Description: as §4, §1, §5

The test system of a further assay is HCT 8 (Colon). Put plainly: MTT cell proliferation assay, HCT 8. It is filed as cell-based, human. The settings on record: read-out: IC50 μM HCT 8 (Colon). Here is the method:
as §1, §2, §3

The mark [2] stands for this setting: Homo sapiens, MDA-MB-231, MTT, 48 h treatment, medium with 10% FBS.
The mark [3] stands for this setting: Homo sapiens, MCF7, MTT, 48 h treatment, medium with 10% FBS.
Where [4] appears, read: Homo sapiens, MTT, 48 h treatment, medium with 10% FBS.
The mark [5] stands for this setting: Homo sapiens, HCT-116, MTT, 48 h treatment, medium with 10% FBS.
Setting [6] is: Homo sapiens, HCT-8, MTT, 48 h treatment, medium with 10% FBS.
[7] abbreviates: MTT, 48 h treatment, medium with 10% FBS.

By IC50 is commonly meant the point on the concentration scale where inhibition reaches its midpoint. For `O=C1NC(=O)C(=C/C=C/c2c3ccccc3cc3ccccc23)C(=O)N1` [Example 1, 5-(3-ANTHRACEN-9-YL-ALLYLIDENE)-PYRIMIDINE-2,4,6-TRIONE], the 50% inhibitory concentration (IC50) with MCF-7 (Breast) (Homo sapiens, MCF7, 48 h) turned out to be 10.5 µM; with HCT116 (Colon) (Homo sapiens, HCT-116, 48 h), 27.1 µM; in assay [1] (Homo sapiens, MDA-MB-231, 48 h), 52 µM.

Consider `CCC1(C)OC(=O)C(=C/C=C/c2c3ccccc3cc3ccccc23)C(=O)O1` (stereo not shown) [Example 2, 5-(3-ANTHRACEN-9-YL-ALLYLIDENE)-2-ETHYL-2-METHYL-[1,3]DIOXANE-4,6-DIONE], for which the half-maximal inhibitory concentration (IC50) in assay [1] (setting [2]) turned out to be 25.2 µM.

In the case of `O=C1NC(=O)C(=C/C=C/c2ccnc3ccccc23)C(=O)N1` [Example 6, 5-(3-QUINOLIN-4-YL-ALLYLIDENE)-PYRIMIDINE-2,4,6-TRIONE], the IC50 with MCF-7 (Breast) (Homo sapiens, MCF7, 48 h) worked out at 31.9 µM; in the assay on KAIMRC1 (Breast) (Homo sapiens, 48 h), 18 µM; in assay [1] (Homo sapiens, MDA-MB-231, 48 h) it was 21.2 µM.

As to `CC1(C)OC(=O)C(=CC=Cc2ccnc3ccccc23)C(=O)O1` [Example 11, 2,2-DIMETHYL-5-(3-QUINOLIN-4-YL-ALLYLIDENE)-[1,3]DIOXANE-4,6-DIONE], the 50% inhibitory concentration (IC50) in the assay with HL 60 (leukemia) (Homo sapiens, HL-60) came out at 1.86 µM; in the assay with ThP1 (leukemia) (Homo sapiens, THP-1) it was 1.68 µM; with MCF-7 (Breast) (setting [3]) it was 19.7 µM; in the assay on KAIMRC1 (Breast) (setting [4]), 33.2 µM; in the assay with HCT116 (Colon) (setting [5]) it was 10.4 µM; with HCT 8 (Colon) (setting [6]), 14.1 µM. In assay [1] (setting [2]), the half-maximal inhibitory concentration (IC50) was found to be 14.1 µM.

Take `CCCC1(C)OC(=O)C(=CC=Cc2ccnc3ccccc23)C(=O)O1` (stereo not shown) [Example 14, 2-METHYL-2-PROPYL-5-(3-QUINOLIN-4-YL-ALLYLIDENE)-[1,3]DIOXANE-4,6-DIONE]: the IC50 in the assay with MCF-7 (Breast) (setting [3]) came to 15.2 µM; in the assay with KAIMRC1 (Breast) (setting [4]), 27.6 µM; with HCT116 (Colon) (setting [5]), 15.4 µM; in the assay with HCT 8 (Colon) (setting [6]), 18.9 µM; in assay [1] (setting [2]) it was 15.5 µM.

As to `O=C1OC2(CCC2)OC(=O)C1=CC=Cc1ccnc2ccccc12` [Example 15, 7-(3-QUINOLIN-4-YL-ALLYLIDENE)-5,9-DIOXA-SPIRO[3.5]NONANE-6,8-DIONE], in assay [1] (setting [2]), the IC50 was 7.84 µM.

On to `O=C1OC2(CCC2)OC(=O)C1=CC=Cc1cncc2ccccc12` [Example 16, 7-(3-ISOQUINOLIN-4-YL-ALLYLIDENE)-5,9-DIOXA-SPIRO[3.5]NONANE-6,8-DIONE], for which the half-inhibitory concentration (IC50) with MCF-7 (Breast) (setting [3]) was determined as 5.44 µM; in the assay with KAIMRC1 (Breast) (setting [4]) it was 8.09 µM; in the assay with HCT116 (Colon) (setting [5]), 8.04 µM; in the assay on HCT 8 (Colon) (setting [6]), 6.01 µM.

`O=C1OC2(CCCCC2)OC(=O)C1=CC=Cc1ccnc2ccccc12` [Example 17, 3-(3-QUINOLIN-4-YL-ALLYLIDENE)-1,5-DIOXA-SPIRO[5.5]UNDECANE-2,4-DIONE]: the IC50 in the assay on MCF-7 (Breast) (setting [3]) was determined as 17.3 µM; in the assay with KAIMRC1 (Breast) (setting [4]), 19.6 µM; in the assay with HCT116 (Colon) (setting [5]), 13.7 µM; in the assay on HCT 8 (Colon) (setting [6]) it was 12.9 µM; in assay [1] (setting [2]) it was 13 µM.

For `CC1(C)OC(=O)C(=CC=Cc2cccc3ccccc23)C(=O)O1` [Example 18, 2,2-DIMETHYL-5-(3-NAPHTHALEN-1-YL-ALLYLIDENE)-[1,3]DIOXANE-4,6-DIONE], the IC50 with KAIMRC1 (Breast) (setting [4]) is 6.54 µM; in the assay on HCT 8 (Colon) (setting [6]) it was 5.78 µM.

As for `CCC1(C)OC(=O)C(=CC=Cc2cccc3ccccc23)C(=O)O1` (stereo not shown) [Example 19, 2 ETHYL,2-METHYL-5-(3-NAPHTHALEN-1-YL-ALLYLIDENE)-[1,3]DIOXANE-4,6-DIONE], the half-maximal inhibitory concentration (IC50) came to 5.82 µM with MCF-7 (Breast) (setting [3]); 5.82 µM in the assay on KAIMRC1 (Breast) (setting [4]); 2.44 µM with HCT116 (Colon) (setting [5]); 2.95 µM in the assay on HCT 8 (Colon) (setting [6]); 5.92 µM in assay [1] (setting [2]).

Turning to `O=C1OC2(CCC2)OC(=O)C1=CC=Cc1cccc2ccccc12` [Example 20, 7-(3-NAPHTHALEN-1-YL-ALLYLIDENE)-5,9-DIOXA-SPIRO[3.5]NONANE-6,8-DIONE], the IC50 with HL 60 (leukemia) (Homo sapiens, HL-60) came out at 2.41 µM; in the assay with ThP1 (leukemia) (Homo sapiens, THP-1) it was 2.04 µM; in the assay with MCF-7 (Breast) (setting [3]), 4.24 µM; with KAIMRC1 (Breast) (setting [4]), 11.9 µM; with HCT116 (Colon) (setting [5]), 4.84 µM; with HCT 8 (Colon) (setting [6]) it was 3.87 µM.

Take `CCC1(C)OC(=O)C(=CC=Cc2ccc(OC)c3ccccc23)C(=O)O1` (stereo not shown) [Example 21, 2-ETHYL-5-[3-(4-METHOXY-NAPHTHALEN-1-YL)-ALLYLIDENE]-2-METHYL-[1,3]DIOXANE-4,6-DIONE]: the concentration for half-maximal inhibition (IC50) with HCT116 (Colon) (setting [5]) was 50 µM; in assay [1] (setting [2]), 17 µM.

In the case of `CC1(C)OC(=O)C(=CC#Cc2cccc3ccccc23)C(=O)O1` [Example 28, 2,2-DIMETHYL-5-(3-NAPHTHALEN-1-YL-PROP-2-YNYLIDENE)-[1,3]DIOXANE-4,6-DIONE], the concentration for half-maximal inhibition (IC50) worked out at 7.36 µM with KAIMRC1 (Breast) (Homo sapiens, 48 h) and 8.82 µM with HCT 8 (Colon) (Homo sapiens, HCT-8, 48 h).

As for `CC1(C)OC(=O)C(=CC=Cc2cccc3occc23)C(=O)O1` [Example 32, 5-(3-BENZOFURAN-4-YL-ALLYLIDENE)-2,2-DIMETHYL-[1,3]DIOXANE-4,6-DIONE], the figures for the IC50 (in the assay on HCT116 (Colon) (setting [5]); in assay [1] (setting [2])) were 34.2 µM and 7.5 µM, respectively.

Turning to `O=C1c2c(O)ccc(O)c2C(=O)c2c(NCCNCCO)ccc(NCCNCCO)c21` [Mitoxanthrone, reference compound], the IC50 in the assay with HL 60 (leukemia) came to 0.7 µM; in the assay with ThP1 (leukemia), 0.22 µM; in the assay on MCF-7 (Breast) (setting [7]), 3.61 µM; in the assay on KAIMRC1 (Breast) (setting [7]) it was 10.1 µM; with HCT116 (Colon) (setting [7]), 0.71 µM; in the assay with HCT 8 (Colon) (setting [7]), 1.25 µM. In addition, in assay [1] (setting [7]), the IC50 was found to be 0.51 µM.

The values are drawn from patent publication US11161823B2, “Anticancer 1,3-dioxane-4,6-dione derivatives and method of combinatorial synthesis thereof” (National Guard Health Affairs, priority 2019, dated 2021).
